Key:
serum iron levels [1] = test: Effect of 1, 5, 10 and 50 mg subcutaneous hepcidin on serum iron levels in normal rats (Example 3); type: in vivo
Protocol: A study was designed to evaluate doses of 1, 5, 10, and 50 mg of hepcidin delivered subcutaneously and their effect on serum iron levels in normal rats (n=7/group).

serum iron levels [2] = test: Serum iron levels in expanded acute study in Sprague Dawley rats (Example 4)
Protocol: A study was designed to evaluate doses of 5, 25, and 50 mg/kg of hepcidin (human equivalent dose of 0.8, 4, 8 mg/kg, respectively), delivered SC to Sprague Dawley rats (n=9/sex/group).

[3] = Expanded acute toxicity study (NOAEL) in Sprague Dawley rats (Example 4); conditions: rat, in vivo
Protocol: (§1) Hepcidin was evaluated in two expanded, acute studies in rats and dogs. These studies were conducted to determine the no-observed adverse effect level (NOAEL). The NOAEL was determined to be 5 mg/kg/day in dogs due to various clinical and histopathological observations.

serum iron levels [4] = test: Effect of 50, 100 and 200 μg subcutaneous hepcidin on serum iron levels in mice (Example 2); type: in vivo; conditions: for serum iron levels compared to vehicle: p<0.01
Protocol: Conversely, 50 μg and 100 μg doses were elevated (p<0.01) compared to the vehicle at 24 hours post dose. The elevated levels of serum iron could be due to the system's reaction to the clearance of hepcidin. […] Mortality was likely related to the stress of the blood collection. Serum iron levels normalized 72 hours post dose.

serum iron levels [5] = test: Effect of subcutaneous hepcidin on serum iron levels in mice (Example 1); type: in vivo; conditions: 50 μg dose subcutaneously, p<0.05
Excerpt: A study was designed to evaluate the effect of subcutaneous doses of hepcidin on serum iron levels in mice (n=6-7/group).

[6] = Expanded acute toxicity study (NOAEL), single subcutaneous dose in dogs (Example 4); conditions: dog, in vivo
Protocol: as §1

[7] = normal rats, any dose level

## CC[C@H](C)[C@@H]1NC(=O)[C@@H](NC(=O)[C@@H](NC(=O)[C@@H]2CCCN2C(=O)[C@H](Cc2ccccc2)NC(=O)[C@H](Cc2c[nH]cn2)NC(=O)[C@@H](NC(=O)[C@@H](N)CC(=O)O)[C@@H](C)O)[C@@H](C)CC)CSSC[C@@H](C(=O)N[C@@H](CCCCN)C(=O)N[C@H](C(=O)O)[C@@H](C)O)NC(=O)[C@@H]2CSSC[C@@H]3NC(=O)[C@@H]4CSSC[C@H](NC(=O)[C@H](Cc5ccccc5)NC1=O)C(=O)N[C@@H](CSSC[C@H](NC(=O)[C@H](CCCCN)NC(=O)[C@H](CO)NC(=O)[C@H](CCCNC(=N)N)NC(=O)[C@H](Cc1c[nH]cn1)NC3=O)C(=O)NCC(=O)N[C@@H](CCSC)C(=O)N2)C(=O)NCC(=O)N4 [hepcidin]
Serum iron levels [1]; normal rats, 5 mg dose, post dose
  time at which serum iron levels returned to pre-dose levels: 48 h
Serum iron levels [1]; normal rats, 10 mg and 50 mg dose groups, 72 hours post dose
  return of serum iron levels to pre-dose levels: did not return to pre-dose levels
Serum iron levels [1]; normal rats, 50 mg, at 72 hours
  effect on serum iron levels: still demonstrated an effect
Serum iron levels [1]; normal rats, 1, 5, 10 and 50 mg subcutaneously, all dose levels
  serum iron levels: significant decrease in serum iron levels
Serum iron levels [1]; normal rats, post dose, all three doses
  time of lowest serum iron concentrations: 4 h
Serum iron levels [2]; Sprague Dawley rats, 5, 25 and 50 mg/kg SC, all doses
  average serum iron levels compared to vehicle and pre-dose levels: significantly decreased
Serum iron levels [2]; Sprague Dawley rats, post dose, all three doses
  time of lowest serum iron level: 4 h
[3]
  toxicokinetic (TK) effect, male vs female: comparable for both sexes
Serum iron levels [4]; mice, 50 μg and 100 μg doses, 24 hours post dose
  serum iron levels compared to vehicle: elevated
Serum iron levels [4]; mice, 50, 100 and 200 μg subcutaneously (all three doses), 4 hours post dose
  serum iron levels compared to vehicle: significant decrease in serum iron levels
Serum iron levels [4]; mice, 72 hours post dose
  serum iron levels: normalized
Serum iron levels [4]; mice, following the 4-hour blood collection, likely related to the stress of the blood collection
  mortality: One mouse died
Serum iron levels [5]; 4 hours post dose
  decrease in serum iron levels compared to vehicle (average): 40%
Serum iron levels [5]; 24 hours post dose
  decrease in serum iron levels compared to vehicle (average): 15%
[6]
  administration site microscopic findings, Day 15: cystic space: cystic space
  administration site microscopic findings, Day 15: fibrosis: fibrosis
  other adverse reactions: hunched posture, soft feces, gross pathology finding of “thick,” and subcutaneous fibrosis, mixed cell infiltration, and cysts present at recovery period
[6]; 25 mg/kg
  administration site microscopic findings, Day 4: mixed cell infiltration in the administration site
[7]
  lethargy: No lethargy was observed

Source: patent US20190336583A1, “COMPOSITIONS AND METHODS FOR TREATING IRON OVERLOAD” (priority 2017, published 2019)
